Assay results: patent publication US20160120881A1, “USE OF BUFODIENOLIDES IN DIAGNOSING AND TREATING ESSENTIAL HYPERTENSION” (priority 2014, published 2016)

Tests used:
severe PPH in rats = settings: cited from earlier work
[1] = two phase I human studies, dosages calculated to have beneficial effects on human PPH (Sidharta et al.); cited from earlier work
[2] = in vitro (Fedorova et al. 1997; Lopatin et al. 1999); cited from earlier work
angiotensin-infused rats [3] = experiment: Systolic blood pressure in angiotensin-infused rats (ANG); format: in vivo, rat; settings: angiotensin infused animals given resibufogenin (ANGR) vs ANG; FIG. 1
Description: (§1) FIG. 1. Mean systolic blood pressure (BP) values in sham (SHM) animals, angiotensin-infused rats (ANG), angiotensin infused animals given resibufogenin (ANGR), normal rats rendered hypertensive by the infusion of saline (volume expansion induced hypertensive rats)(NDS), NDS rats given resibufogenin (NDSR).
(§2) This compound differs from MBG only in the absence of a hydroxyl group in the beta-5 position of the molecule. […] Current therapy of volume expansion hypertension involves the administration of a diuretic. RBG can be considered in place of the diuretic as the therapy of choice of volume expansion-mediated hypertension or can be utilized in combination with the diuretic so that smaller dosages of each agent could be utilized. The latter strategy can result in fewer side effects from either drug.

angiotensin-infused rats [4] = settings: animals subjected to angiotensin excess (Danchuk et al. 2008); cited from earlier work
[5] = test system: volume expansion induced hypertensive rats; experiment: Systolic blood pressure in volume expansion induced hypertensive rats (saline infusion, NDS); format: in vivo, rat; settings: NDS rats given resibufogenin (NDSR) vs NDS; FIG. 1
Description: as §1, §2

[6] = test system: preeclampsia in animal models; experiment: Preeclampsia animal models; format: in vivo
Description: (§3) MBG is elevated in other syndromes such as preeclampsia and traumatic brain injury. It has been shown that the administration of the antagonist of MBG, resibufagenin (RBG) is therapeutically effective. […] RBG antagonizes MBG activity and may be an effective treatment for hypertension, ARDS, traumatic brain injury, and preeclampsia. Certain embodiments are directed to treating a hypertensive patient having elevated levels of MBG by administering an MBG antagonist or anti-MBG agent. In certain aspects the anti-MBG agent is resibufagenin (RBG).

[7] = test system: rodent brain contusion model; experiment: Rodent brain contusion model; format: in vivo; settings: given 1 hour after the insult
Description: as §3

[8] = test system: volume expansion induced hypertensive rats; settings: experimental animals, volume expansion-mediated hypertension (Danchuk et al. 2008); cited from earlier work

CCCNS(=O)(=O)Nc1ncnc(OCCOc2ncc(Br)cn2)c1-c1ccc(Br)cc1 [macitentan]
Pulmonary arterial hypertension (severe PPH in rats; severe PPH (Kunita-Takanezawa et al. 2014)): reversed severe pulmonary arterial hypertension | Adverse effects (severe PPH in rats; severe PPH): no adverse effects | Cardiac output (severe PPH in rats; severe PPH): preserved cardiac output | RV systolic pressure (severe PPH in rats; severe PPH): lowered RV systolic pressure | Right ventricular hypertrophy (severe PPH in rats; severe PPH): reversed right ventricular hypertrophy | Adverse effects [1]: no adverse effects of the drug were noted

C[C@]12CC[C@H](O)C[C@@]1(O)CC[C@@H]1[C@@H]2CC[C@]2(C)[C@@H](c3ccc(=O)oc3)C[C@H]3O[C@]132 [marinobufagenin (MBG), marinobufagenin]
Vasoconstrictor action [2]: acts in vitro as a vasoconstrictor

C[C@]12CC[C@H](O)C[C@H]1CC[C@@H]1[C@@H]2CC[C@]2(C)[C@@H](c3ccc(=O)oc3)C[C@H]3O[C@]132 [resibufogenin, epoxy-3β-hydroxy-5β-bufa-20,22-dienolide]
Mean systolic blood pressure (BP) (angiotensin-infused rats [3]): only in the volume expanded animals | Elevated blood pressure (angiotensin-infused rats [4]): does not lower elevated blood pressure | Mean systolic blood pressure (BP) [5]: reduced blood pressure only in the volume expanded animals | Preeclampsia [6]: prevents preeclampsia | Tissue injury [7]: amelioration of tissue injury | Blood pressure elevation [8]: resolves blood pressure elevations
